Reference: patent US5776944A, “7-(4-aminomethyl-3-methyloxyiminopyrroplidin-1-yl)-1-cyclopropyl-6-flu oro-4-oxo-1,4-dihydro-1,8-naphthyridine-3-carboxylic acid and the process for the preparation thereof” (LG Chemical Ltd., priority 1994, dated 1998)
Values after ≈ are worked out from the molar mass of the structure shown. Read-outs that look alike come from different tables or passages of the source.

Legend:
[1] = system: Staphylococcus aureus 6538p; assay: In vitro antibacterial activity (MIC, agar dilution), Biological Example 1; format: cell-based; conditions: 18 h, Table 25, read-out: Minimum Inhibitory Concentration
[2] = system: Staphylococcus aureus giorgio; assay: as above; format: cell-based; conditions: 18 h, Table 25, read-out: Minimum Inhibitory Concentration
Staphylococcus aureus 77 [3] = assay: as above; format: cell-based; conditions: 18 h; Staphylococcus aureus 77, Table 25; read-out: Minimum Inhibitory Concentration
[4] = system: Staphylococcus aureus 241; assay: as above; format: cell-based; conditions: 18 h; Staphylococcus aureus 241, Table 25; read-out: Minimum Inhibitory Concentration
[5] = system: Staphylococcus epidermidis 887E; assay: as above; format: cell-based; conditions: 18 h, Table 25, read-out: Minimum Inhibitory Concentration
[6] = system: Staphylococcus epidermidis 178; assay: as above; format: cell-based; conditions: 18 h; Staphylococcus epidermidis 178, Table 25; read-out: Minimum Inhibitory Concentration
[7] = system: Streptococcus faecalis 29212; assay: as above; format: cell-based; conditions: Enterococcus faecalis, 18 h; Streptococcus faecalis 29212, Table 25; read-out: Minimum Inhibitory Concentration
Bacillus subtilis 6633 [8] = assay: as above; format: cell-based; conditions: 18 h; Bacillus subtilis 6633, Table 25; read-out: Minimum Inhibitory Concentration
Micrococcus luteus 9341 [9] = assay: as above; format: cell-based; conditions: 18 h; Micrococcus luteus 9341, Table 25; read-out: Minimum Inhibitory Concentration
Escherichia coli 10536 [10] = assay: as above; format: cell-based; conditions: 18 h; Escherichia coli 10536, Table 25; read-out: Minimum Inhibitory Concentration
Escherichia coli 3190Y [11] = assay: as above; format: cell-based; conditions: 18 h, Table 25, read-out: Minimum Inhibitory Concentration
Escherichia coli 851E [12] = assay: as above; format: cell-based; conditions: 18 h, Table 25, read-out: Minimum Inhibitory Concentration
[13] = system: Escherichia coli TEM3 3455E; assay: microbe, parasite or virus in culture; format: cell-based; conditions: TEM33455E, 18 h, read-out: Minimum Inhibitory Concentration
[14] = system: Escherichia coli TEM5 3739E; assay: microbe, parasite or virus in culture; format: cell-based; conditions: TEM53739E, 18 h, read-out: Minimum Inhibitory Concentration
[15] = system: Escherichia coli TEM9 2639E; assay: microbe, parasite or virus in culture; format: cell-based; conditions: TEM92639E, 18 h, read-out: Minimum Inhibitory Concentration
[16] = system: Pseudomonas aeruginosa 1912E; assay: In vitro antibacterial activity (MIC, agar dilution), Biological Example 1; format: cell-based; conditions: 18 h; Pseudomonas aeruginosa 1912E, Table 25; read-out: Minimum Inhibitory Concentration
[17] = system: Pseudomonas aeruginosa 10145; assay: as above; format: cell-based; conditions: 18 h; Pseudomonas aeruginosa 10145, Table 25; read-out: Minimum Inhibitory Concentration
[18] = system: Acinetobacter calcoaceticus 15473; assay: as above; format: cell-based; conditions: 18 h; Acinetobacter calcoaceticus 15473, Table 25; read-out: Minimum Inhibitory Concentration
[19] = system: Citrobacter diversus 2046E; assay: as above; format: cell-based; conditions: Citrobacter koseri, 18 h, Table 25, read-out: Minimum Inhibitory Concentration
[20] = system: Enterobacter cloacae 1194E; assay: microbe, parasite or virus in culture; format: cell-based; conditions: 18 h, read-out: Minimum Inhibitory Concentration
Enterobacter cloacae P99 [21] = assay: microbe, parasite or virus in culture; format: cell-based; conditions: P99, 18 h, read-out: Minimum Inhibitory Concentration
[22] = system: Klebsiella aerogenes 1976E; assay: In vitro antibacterial activity (MIC, agar dilution), Biological Example 1; format: cell-based; conditions: 18 h, Table 25, read-out: Minimum Inhibitory Concentration
[23] = system: Klebsiella aerogenes 1082E; assay: as above; format: cell-based; conditions: 18 h, Table 25, read-out: Minimum Inhibitory Concentration
[24] = system: Salmonella typimurium 14028; assay: as above; format: cell-based; conditions: 18 h; Salmonella typimurium 14028, Table 25; read-out: Minimum Inhibitory Concentration
Acute oral toxicity test = conditions: in vivo, ICR male mouse, 7 days
Procedure: To determine the acute oral toxicity of the compounds prepared in Examples 1 and 34, the test solution containing the compounds in various concentrations were orally administered to ICR male mouse in an amount of 10 ml per kg of body weight. For 7 days after administration, the lethality and the conditions of test mouse were observed, from which LD50 value (mg/kg), was calculated.

[25] = system: Staphylococcus aureus 6538p; assay: In vitro antibacterial activity (MIC, agar medium dilution), Biological Example 4; format: cell-based; conditions: 18 h, Table 31, read-out: Minimum Inhibitory Concentration: MIC
[26] = system: Staphylococcus aureus giorgio; assay: as above; format: cell-based; conditions: 18 h, Table 31, read-out: Minimum Inhibitory Concentration: MIC
Staphylococcus aureus 77 [27] = assay: as above; format: cell-based; conditions: 18 h; Staphylococcus aureus 77, Table 31; read-out: Minimum Inhibitory Concentration: MIC
[28] = system: Staphylococcus aureus 241; assay: as above; format: cell-based; conditions: Staphylococcus aureus, 241, 18 h, Staphylococcus aureus 241, Table 31; read-out: Minimum Inhibitory Concentration: MIC
[29] = system: Staphylococcus epidermidis 887E; assay: as above; format: cell-based; conditions: 18 h, Staphylococcus epidermidis 887E, Table 31, read-out: Minimum Inhibitory Concentration: MIC
[30] = system: Staphylococcus epidermidis 178; assay: as above; format: cell-based; conditions: 18 h; Staphylococcus epidermidis 178, Table 31; read-out: Minimum Inhibitory Concentration: MIC
[31] = system: Streptococcus faecalis 29212; assay: as above; format: cell-based; conditions: Enterococcus faecalis, 29212, 18 h, Streptococcus faecalis 29212, Table 31; read-out: Minimum Inhibitory Concentration: MIC
Bacillus subtilis 6633 [32] = assay: as above; format: cell-based; conditions: 18 h; Bacillus subtilis 6633, Table 31; read-out: Minimum Inhibitory Concentration: MIC
Micrococcus luteus 9341 [33] = assay: as above; format: cell-based; conditions: 18 h; Micrococcus luteus 9341, Table 31; read-out: Minimum Inhibitory Concentration: MIC
Escherichia coli 10536 [34] = assay: as above; format: cell-based; conditions: Escherichia coli, 10536, 18 h, Escherichia coli 10536, Table 31; read-out: Minimum Inhibitory Concentration: MIC
Escherichia coli 3190Y [35] = assay: as above; format: cell-based; conditions: 18 h, Table 31, read-out: Minimum Inhibitory Concentration: MIC
Escherichia coli 851E [36] = assay: as above; format: cell-based; conditions: 18 h, Table 31, read-out: Minimum Inhibitory Concentration: MIC
[37] = system: Escherichia coli TEM3 3455E; assay: as above; format: cell-based; conditions: TEM33455E, 18 h, read-out: Minimum Inhibitory Concentration: MIC, Escherichia coli TEM3 3455E, Table 31
[38] = system: Escherichia coli TEM5 3739E; assay: as above; format: cell-based; conditions: TEM53739E, 18 h, read-out: Minimum Inhibitory Concentration: MIC
[39] = system: Escherichia coli TEM9 2639E; assay: as above; format: cell-based; conditions: TEM92639E, 18 h, read-out: Minimum Inhibitory Concentration: MIC
[40] = system: Pseudomonas aeruginosa 1912E; assay: as above; format: cell-based; conditions: 18 h, Table 31, read-out: Minimum Inhibitory Concentration: MIC
[41] = system: Pseudomonas aeruginosa 10145; assay: as above; format: cell-based; conditions: Pseudomonas aeruginosa, 10145, 18 h, Pseudomonas aeruginosa 10145, Table 31; read-out: Minimum Inhibitory Concentration: MIC
[42] = system: Pseudomonas aeruginosa 6065Y; assay: as above; format: cell-based; conditions: 18 h, Table 31, read-out: Minimum Inhibitory Concentration: MIC
Procedure: (§1) In order to determine the antibacterial activitiers of the E- and Z-isomner of the compound 180 which were separated in Example 203, and of 7- (4-aminomethyl-3-methyloxylminopyrrolidin-1-yl)-1-cyclopropyl-6-fluoro-4-oxo-1,4-dihydro-1,8-naphthyridine-3-carboxylic acid methanesulfonate prepared in Example 204, in vitro antibacterial activities of them were measured using agar medium dilution method. The results were as described in the following Tables 31 and 32.

Seratis marsecence 1826E = assay: as above; format: cell-based; conditions: 18 h, Table 31, read-out: Minimum Inhibitory Concentration: MIC
Procedure: as §1

[43] = system: Acinetobacter calcoaceticus 15473; assay: as above; format: cell-based; conditions: 18 h; Acinetobacter calcoaceticus 15473, Table 31; read-out: Minimum Inhibitory Concentration: MIC
[44] = system: Citrobacter diversus 2046E; assay: as above; format: cell-based; conditions: Citrobacter koseri, 18 h, Table 31, read-out: Minimum Inhibitory Concentration: MIC
[45] = system: Enterobacter cloacae 1194E; assay: microbe, parasite or virus in culture; format: cell-based; conditions: 18 h, read-out: Minimum Inhibitory Concentration: MIC
Enterobacter cloacae P99 [46] = assay: microbe, parasite or virus in culture; format: cell-based; conditions: P99, 18 h, read-out: Minimum Inhibitory Concentration: MIC
[47] = system: Klebsiella aerogenes 1976E; assay: In vitro antibacterial activity (MIC, agar medium dilution), Biological Example 4; format: cell-based; conditions: 18 h, Table 31, read-out: Minimum Inhibitory Concentration: MIC
[48] = system: Klebsiella aerogenes 1082E; assay: as above; format: cell-based; conditions: 18 h, Table 31, read-out: Minimum Inhibitory Concentration: MIC
Proteus vulgaris 6059 = assay: as above; format: cell-based; conditions: 18 h; Proteus vulgaris 6059, Table 31; read-out: Minimum Inhibitory Concentration: MIC
[49] = system: Salmonella thypimurium 14028; assay: as above; format: cell-based; conditions: 18 h; Salmonella thypimurium 14028, Table 31; read-out: Minimum Inhibitory Concentration: MIC
test strains = assay: In vitro antibacterial activity, overall finding, Biological Example 4; format: cell-based; conditions: Tables 31 and 32
Procedure: as §1

[50] = phosphate buffered solution

`NCC1CN(c2nc3c(cc2F)c(=O)c(C(=O)O)cn3C2CC2)CC1=NOCc1ccccc1` (centres unmarked) [Example 1, 7-(4-aminomethyl-3-benzyloxyimino-pyrrolidin-1-yl)-1-cyclopropyl-6-fluoro-1,4-dihydro-4-oxo-1,8-naphthyridine-3-carboxylic acid] gave an MIC [1] of at most 0.008 µg/mL, an MIC [2] of at most 0.008 µg/mL and an MIC (Staphylococcus aureus 77 [3]) of at most 0.008 µg/mL. It also gave an MIC [4] of 2 µg/mL (≈ 4.3 µM), an MIC [5] of at most 0.008 µg/mL and an MIC [6] of 2 µg/mL (≈ 4.3 µM). The MIC [7] was 0.031 µg/mL (≈ 0.0666 µM), the MIC (Bacillus subtilis 6633 [8]) was at most 0.008 µg/mL and the MIC (Micrococcus luteus 9341 [9]) was 0.063 µg/mL (≈ 0.135 µM). The MIC (Escherichia coli 10536 [10]) was at most 0.008 µg/mL, the MIC (Escherichia coli 3190Y [11]) was at most 0.008 µg/mL and the MIC (Escherichia coli 851E [12]) was 0.016 µg/mL (≈ 0.0344 µM). It also gave an MIC [13] of 0.25 µg/mL (≈ 0.537 µM), an MIC [14] of 0.063 µg/mL (≈ 0.135 µM) and an MIC [15] of 0.063 µg/mL (≈ 0.135 µM). The MIC [16] was 1 µg/mL (≈ 2.15 µM), the MIC [17] was 2 µg/mL (≈ 4.3 µM) and the MIC [18] was at most 0.008 µg/mL. The MIC [19] was 0.063 µg/mL (≈ 0.135 µM), the MIC [20] was 0.031 µg/mL (≈ 0.0666 µM) and the MIC (Enterobacter cloacae P99 [21]) was at most 0.008 µg/mL. For the same molecule, the MIC [22] was 0.25 µg/mL (≈ 0.537 µM), the MIC [23] was 0.063 µg/mL (≈ 0.135 µM) and the MIC [24] was 0.13 µg/mL (≈ 0.279 µM). The LD50 at 168 h (Acute oral toxicity test) was over 3000 mg/kg.

In the case of `CO/N=C1\CN(c2nc3c(cc2F)c(=O)c(C(=O)O)cn3C2CC2)CC1CN` (stereo not drawn) [Z-isomer], the MIC [25] was at most 0.008 µg/mL, the MIC [26] was at most 0.008 µg/mL and the MIC (Staphylococcus aureus 77 [27]) was 0.031 µg/mL (≈ 0.0796 µM). For the same molecule, the MIC [28] was 4 µg/mL (≈ 10.3 µM), the MIC [29] was at most 0.008 µg/mL and the MIC [30] was 4 µg/mL (≈ 10.3 µM). The MIC [31] was 0.063 µg/mL (≈ 0.162 µM), the MIC (Bacillus subtilis 6633 [32]) was at most 0.008 µg/mL and the MIC (Micrococcus luteus 9341 [33]) was 0.13 µg/mL (≈ 0.334 µM). For the same molecule, the MIC (Escherichia coli 10536 [34]) was at most 0.008 µg/mL, the MIC (Escherichia coli 3190Y [35]) was at most 0.008 µg/mL and the MIC (Escherichia coli 851E [36]) was 0.016 µg/mL (≈ 0.0411 µM). The MIC [37] was 0.13 µg/mL (≈ 0.334 µM), the MIC [38] was 0.13 µg/mL (≈ 0.334 µM) and the MIC [39] was 0.031 µg/mL (≈ 0.0796 µM). It also gave an MIC [40] of 0.5 µg/mL (≈ 1.28 µM), an MIC [41] of 0.5 µg/mL (≈ 1.28 µM) and an MIC [42] of 8 µg/mL (≈ 20.5 µM). The MIC (Seratis marsecence 1826E) was 0.25 µg/mL (≈ 0.642 µM), the MIC [43] was 0.063 µg/mL (≈ 0.162 µM) and the MIC [44] was 0.031 µg/mL (≈ 0.0796 µM). It also gave an MIC [45] of 0.031 µg/mL (≈ 0.0796 µM), an MIC (Enterobacter cloacae P99 [46]) of at most 0.008 µg/mL and an MIC [47] of 0.063 µg/mL (≈ 0.162 µM). The MIC [48] was 0.031 µg/mL (≈ 0.0796 µM), the MIC (Proteus vulgaris 6059) was 0.25 µg/mL (≈ 0.642 µM) and the MIC [49] was 0.031 µg/mL (≈ 0.0796 µM). For the same molecule, the antibacterial activity (test strains) was “superior antibacterial activity to the E-isomer”.

With `CON=C1CN(c2nc3c(cc2F)c(=O)c(C(=O)O)cn3C2CC2)CC1CN` (centres unmarked) [free form, 7-(4-aminomethyl-3-methyloxyiminopyrrolidin-1-yl)-1-cyclopropyl-6-fluoro-4-oxo-1,4-dihydro-1,8-naphthyridine-3-carboxylic acid] the antibacterial activity (test strains) was “excellent antibacterial activity”, the “Water Solubility” value ([50]; pH 2) was 14.6 and the “Water Solubility” value ([50]; pH 7) was 0.007.
